Publication PMC12027443, “Surface Plasmon Resonance (SPR) for the Binding Kinetics Analysis of Synthetic Cannabinoids: Advancing CB1 Receptor Interaction Studies” (International Journal of Molecular Sciences, 2025)
Read-outs that look alike come from different tables or passages of the source.

Key:
CB1 receptor [1] = biological target: T1, CB1 receptor (Homo sapiens, UniProt P21554); design: method as in PMID 40180269; conditions: SPR affinity assessment, earlier study, cited from earlier work
mice [2] = system: mice; design: method as in PMID 40180269; conditions: cited from earlier work
mice [3] = system: mice; design: method as in PMID 40180269; conditions: hypothermia, motor suppression, catalepsy; ranking among 4F-ABUTINACA, JWH-018, SDB-005; cited from earlier work
mice [4] = system: mice; design: method as in PMID 40180269; conditions: ranking among 4F-ABUTINACA, JWH-018, SDB-005; cited from earlier work
CB1 receptor [5] = biological target: T1, CB1 receptor; assay: Surface Plasmon Resonance (SPR) affinity assay, CB1 protein immobilized on CM5 chip (Biacore T200); assay type: binding
Protocol: The ligand immobilization was conducted in four steps: ligand pre-enrichment, activation, coupling, and blocking. To prepare the 1.05× PBS-P buffer, it was diluted from the 10× PBS-P buffer. For ligand pre-enrichment, the Biacore T200 (cytiva, Marlborough, MA, USA; manufactured in Sweden) pre-enrichment program was employed. The 300 μg/mL protein stock solution was diluted to a final concentration of 15 μg/mL using 10 mM sodium acetate solutions at pH 4.0, 4.5, 5.0, and 5.5, respectively. The ligand was flowed over the surface of a blank chip at a flow rate of 30 μL/min to assess the effect of electrostatic adsorption. Based on the response difference and slope, the optimal coupling pH of 4.0 was selected. For activation, the Biacore T200 manual coupling program was used. The carboxylic acid groups on the chip surface were activated by injecting a 1:1 mixture of EDC and NHS from the amino-coupling kit at a flow rate of 10 μL/min for 900 s. During the coupling step, the 300 μg/mL protein stock solution was diluted 10-fold to 30 μg/mL using sodium acetate at pH 4.0. […]
For solvent correction, eight solvent correction points were established, with correction cycles performed at the beginning, end, and every 30 samples during the experiment. […] The system continuously monitored and recorded the sensorgram of the interaction between the sample and the CB1 protein in real time. […]

CB1 receptor [6] = biological target: T1, CB1 receptor; design: method as in PMID 26686391; conditions: read-out: GTPγS Binding Assay Ki Value; Table 2; cited from earlier work
CB1 receptor [7] = biological target: T1, CB1 receptor; design: method as in PMID 31021521; conditions: read-out: βarr2 Recruitment Assay EC50 Values; HEK293T cell lines; Table 3; cited from earlier work

T1 sequence (P21554 whole entry): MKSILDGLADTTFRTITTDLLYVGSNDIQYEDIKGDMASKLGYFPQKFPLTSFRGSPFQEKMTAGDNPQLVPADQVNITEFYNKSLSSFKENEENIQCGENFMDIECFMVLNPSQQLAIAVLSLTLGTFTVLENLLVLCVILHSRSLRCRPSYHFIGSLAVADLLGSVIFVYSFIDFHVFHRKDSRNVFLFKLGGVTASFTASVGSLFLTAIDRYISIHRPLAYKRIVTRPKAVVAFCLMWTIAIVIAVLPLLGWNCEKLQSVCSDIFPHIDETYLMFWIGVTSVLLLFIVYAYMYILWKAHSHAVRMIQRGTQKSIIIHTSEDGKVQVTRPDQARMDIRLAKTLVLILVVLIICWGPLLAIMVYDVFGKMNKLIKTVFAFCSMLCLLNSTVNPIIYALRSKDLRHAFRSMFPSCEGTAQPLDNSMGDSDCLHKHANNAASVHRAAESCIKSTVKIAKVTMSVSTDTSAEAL

| Compound | effects in the tetrad test (mice [3]) | reward potential in the CPP test (mice [4]) | Ki (CB1 receptor [6]) [nM] | also measured |
| --- | --- | --- | --- | --- |
| O=C(NC12CC3CC(CC(C3)C1)C2)c1nn(CCCCF)c2ccccc12 [4F-ABUTINACA] | most pronounced effects | strongest reward potential |  | Kd (CB1 receptor [1]; read-out: KD): 20100 nM; LD50 (acute toxicity) (mice [2]): 11.62 mg/kg |
| O=C(NC12CC3CC(CC(C3)C1)C2)c1nn(CCCCCF)c2ccccc12 [5F-AKB-48] |  |  | 0.87 | reduction in the KD value on substitution of parent core from indole to indazole (CB1 receptor [5]; 5F-AKB-48 versus STS-135): 50% |
| CC(C)C(NC(=O)c1nn(CC2CCCCC2)c2ccccc12)C(N)=O (centres unmarked) [AB-CHMINACA] |  |  |  | EC50 (CB1 receptor [7]): 0.34 nM |
| CCCCCn1cc(C(=O)c2cccc3ccccc23)c2ccccc21 [JWH-018] | intermediate | intermediate | 3.38 | Kd (CB1 receptor [1]): 39300 nM; EC50 (CB1 receptor [7]): 36.8 nM |
| C=CCCCn1nc(C(=O)NC(C(=O)OC)C(C)(C)C)c2ccccc21 (centres unmarked) [MDMB-4en-PINACA] |  |  |  | affinity relative to AMB-4en-PICA (CB1 receptor [5]; ratio of KD values, MDMB-4en-PINACA versus AMB-4en-PICA): six-fold higher affinity |
| CCCCCn1nc(C(=O)Oc2cccc3ccccc23)c2ccccc21 [SDB-005] | weaker | weaker |  | Kd (CB1 receptor [1]; read-out: KD): 53000 nM |
| O=C(NC12CC3CC(CC(C3)C1)C2)c1cn(CCCCCF)c2ccccc12 [STS-135] |  |  | 1.93 |  |
